Data from BindingDB's records for doi:10.1016/j.bmcl.2014.02.013 (Bristol-Myers Squibb, 2014).

Test: Antagonist activity at CCR2 in human monocytes assessed as reduction of chemotaxis in presence of […] BSA

Compound | IC50
CC(C)N(C)[C@@H]1CC[C@H](N2CC[C@H](NC(=O)c3cccc(C(F)(F)F)c3)C2=O)[C@H](CS(C)(=O)=O)C1 | 2.6 nM
CCS(=O)(=O)C[C@@H]1C[C@H](N(C)C(C)C)CC[C@@H]1N1CC[C@H](NC(=O)c2cccc(C(F)(F)F)c2)C1=O | 0.6 nM
CC(C)N(C)[C@@H]1CC[C@H](N2CC[C@H](NC(=O)c3cccc(C(F)(F)F)c3)C2=O)[C@H](CS(=O)(=O)C(C)C)C1 | 0.2 nM
CC(C)N(C)[C@@H]1CC[C@H](N2CC[C@H](NC(=O)c3cccc(C(F)(F)F)c3)C2=O)[C@H](CS(=O)(=O)C(C)(C)C)C1 | 0.2 nM
